Experimental data as given in patent US20140024030A1, “PRESELECTION OF SUBJECTS FOR THERAPEUTIC TREATMENT WITH OXYGEN SENSITIVE AGENTS BASED IN HYPOXIC STATUS” (priority 2010, published 2014).

Tests used:
[1] = test system: locally advanced or metastatic NSCLC; conditions: maintenance, erlotinib 150 mg once daily; difference not statistically significant; cited from earlier work
[2] = test system: locally advanced, unresectable or metastatic pancreatic cancer; conditions: 100 mg cohort, arms: gemcitabine plus erlotinib vs gemcitabine alone, cited from earlier work
JAK2V617F = JAK2V617F (Homo sapiens, UniProt O60674, V617F); conditions: cited from earlier work
Sequence of JAK2V617F (O60674 whole entry V617F): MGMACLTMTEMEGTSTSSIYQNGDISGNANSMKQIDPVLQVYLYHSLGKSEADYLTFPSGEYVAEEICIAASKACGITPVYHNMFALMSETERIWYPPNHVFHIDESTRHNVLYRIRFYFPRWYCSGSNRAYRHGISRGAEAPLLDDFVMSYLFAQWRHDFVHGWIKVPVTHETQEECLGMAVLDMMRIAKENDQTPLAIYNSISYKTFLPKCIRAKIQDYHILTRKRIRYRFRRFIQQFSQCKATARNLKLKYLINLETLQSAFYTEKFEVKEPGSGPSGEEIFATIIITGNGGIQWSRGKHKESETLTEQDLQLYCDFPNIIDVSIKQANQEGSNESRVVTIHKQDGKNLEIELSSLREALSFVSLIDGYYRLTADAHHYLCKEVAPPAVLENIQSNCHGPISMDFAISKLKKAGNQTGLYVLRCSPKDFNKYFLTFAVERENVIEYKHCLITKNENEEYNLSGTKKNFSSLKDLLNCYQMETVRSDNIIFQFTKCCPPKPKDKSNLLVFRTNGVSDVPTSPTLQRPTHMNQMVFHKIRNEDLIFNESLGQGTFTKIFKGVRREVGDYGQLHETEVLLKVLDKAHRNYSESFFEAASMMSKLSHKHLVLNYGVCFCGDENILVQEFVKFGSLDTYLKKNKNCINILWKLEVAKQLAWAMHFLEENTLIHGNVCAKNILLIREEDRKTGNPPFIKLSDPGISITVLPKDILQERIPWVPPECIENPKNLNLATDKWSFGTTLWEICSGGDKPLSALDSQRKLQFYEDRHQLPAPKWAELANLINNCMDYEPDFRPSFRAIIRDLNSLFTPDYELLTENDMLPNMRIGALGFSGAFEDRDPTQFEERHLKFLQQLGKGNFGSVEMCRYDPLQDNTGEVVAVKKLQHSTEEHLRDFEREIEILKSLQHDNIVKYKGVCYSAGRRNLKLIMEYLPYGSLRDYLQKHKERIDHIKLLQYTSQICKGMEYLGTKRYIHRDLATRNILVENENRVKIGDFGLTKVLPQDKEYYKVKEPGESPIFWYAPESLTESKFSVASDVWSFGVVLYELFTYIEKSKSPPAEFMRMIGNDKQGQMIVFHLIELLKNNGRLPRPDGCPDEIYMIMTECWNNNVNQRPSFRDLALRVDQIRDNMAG

[3] = test system: locally advanced or metastatic NSCLC; conditions: erlotinib 150 mg orally once daily; cited from earlier work
[4] = test system: HCT116 human colon carcinoma xenograft; assay: HCT116 xenograft model in nude mice (hypoxic tumor); format: in vivo; conditions: for efficacy at slowing tumor growth in HCT116 (high hypoxia) versus 786O (low hypoxia) tumors: comparison of HCT116 and 786O xenografts in nude mice
Method: Human tumor cell lines HCT116 (ATCC #CRL-247; Schroy P C, et al. Cancer 76: 201-209, 1995) and 786-O (ATCC #CRL-1932; Williams R D, et al. In Vitro 12: 623-627, 1976), were obtained from the American Type Culture Collection (Manassus, Va., USA) were cultured using routine methods until a sufficient number of cells were obtained for implantation. Studies were conducted on animals between 7 and 12 weeks of age at implantation. To implant HCT116 tumor cells into nude mice, the cells were trypsinized, washed in PBS and resuspended at a concentration of 75×10^6 cells/ml in McCoy's modified medium with 50% of BD Matrigel® Basement Membrane Matrix (BD Biosciences®, Bedford, Mass., USA). To implant 786-O tumor cells into nude mice, the cells were trypsinized as above, washed in PBS and resuspended at a concentration of 75×10^6 cells/ml in RPMI 1640 medium with 50% of BD Matrigel® Basement Membrane Matrix. Using a 27 gauge needle and 1 cc syringe, 0.1 ml of the cell suspension was injected into the corpus adiposum of nude mice. […] The location permits palpation and measurement of the tumors using external calipers. Tumor volumes (V) were calculated by caliper measurement of the width (W), length (L) and thickness (T) of tumors using the following formula: V=0.5236×(L×W×T).
As above, HCT116 and 786-O cells were cultured and implanted into nude mice using the methods in the previous example. Tumor growth was measured using calipers.
Tumor volume was monitored throughout the course of the study, until up to about 40 days from the date of tumor implantation. The exact number of days of the study depended on a number of factors including, for example, the number of days from implantation for the tumors to reach the desired volume.

[5] = test system: metastatic colorectal cancer; conditions: bevacizumab and chemotherapy vs bevacizumab and chemotherapy alone, cited from earlier work
[6] = test system: EGFR-expressing, metastatic carcinoma of the colon or rectum (mCRC); conditions: panitumumab 6 mg/kg every two weeks plus best supportive care; cited from earlier work
[7] = test system: gastrointestinal stromal tumor (GIST); conditions: cited from earlier work
treatment-naïve RCC = conditions: cited from earlier work
[8] = test system: GIST following progression on or intolerance to imatinib; conditions: 50 mg once daily Schedule 4/2; 5 of 55 patients; cited from earlier work
solid tumors = conditions: once-weekly dosing, evaluable patients; cited from earlier work
[9] = test system: advanced relapsed/refractory NSCLC; conditions: cited from earlier work

C#Cc1cccc(Nc2ncnc3cc(OCCOC)c(OCCOC)cc23)c1 [erlotinib]
overall survival [1]: 12 weeks
progression free survival ([2]; p=0.006): 3.8 months
survival ([2]; p=0.028): 6.4 months
JAK2V617F activity (JAK2V617F): potent inhibitor of JAK2V617F activity
median response duration [3]: 34.3 weeks
progression free survival [3]: 9.9 weeks
survival [3]: 6.7 months
tumor response [3]: 8.9%
efficacy at slowing tumor growth in HCT116 (high hypoxia) versus 786O (low hypoxia) tumors [4]: more effective at slowing tumor growth in tumors with high levels of hypoxia
tumor growth rate versus control ([4]; erlotinib 1x/week P.O., p=0.0224): reduced the growth rate of the tumor as compared to control

panitumumab: recombinant, human IgG2 kappa monoclonal antibody that binds to the human EGFR
median PFS ([5]; oxaliplatin stratum, arms: panitumumab): 8.8 months
PFS hazard ratio ([5]; panitumumab, p-value=0.0024): 1.44
PFS [6]: 96 days
efficacy at slowing tumor growth in HCT116 (high hypoxia) versus 786O (low hypoxia) tumors [4]: not found to work better in the tumors with a higher level of hypoxia

CCN(CC)CCNC(=O)c1c(C)[nH]c(/C=C2\C(=O)Nc3ccc(F)cc32)c1C [sunitinib]
median OS ([7]; final analysis, sunitinib arm): 72.7 weeks
time to tumor progression (TTP) versus placebo ([7]; interim analysis, 50 mg once daily Schedule 4/2): statistically significant advantage for sunitinib over placebo in TTP
OS HR ([7]; sunitinib vs placebo, final analysis): 0.876
PFS versus IFN-α (treatment-naïve RCC; 50 mg sunitinib once daily Schedule 4/2): statistically significant advantage for sunitinib over IFN-α in the endpoint of PFS
median OS (treatment-naïve RCC; final analysis, arms: sunitinib vs IFN-α): 114.6 weeks
ORR versus IFN-α arm (treatment-naïve RCC; in vivo): higher
PR rate [8]: 9.1%
efficacy at slowing tumor growth in HCT116 (high hypoxia) versus 786O (low hypoxia) tumors [4]: not found to work better in the tumors with a higher level of hypoxia

CC(C)c1cc(-c2nnc(O)n2-c2ccc3c(ccn3C)c2)c(O)cc1O [ganetespib]
disease control (solid tumors): more than half of all evaluable patients experienced disease control
disease control rate ([9]; broad population, single agent): 54%
patients with durable, objective responses ([9]; patients with ALK rearrangement, four of eight): 50%
patients who received ganetespib for 16 weeks or more ([9]; patients with ALK rearrangement, seven of eight): 88%
patients with tumor shrinkage ([9]; patients with ALK rearrangement, six of eight): 75%
efficacy at slowing tumor growth in HCT116 (high hypoxia) versus 786O (low hypoxia) tumors [4]: not found to work better in the tumors with a higher level of hypoxia
